{
  "source": "patent US20240108740A1",
  "about": "“THERAPEUTIC COMPOSITIONS INCLUDING SPN10 AND USES THEREOF” (Stealth BioTherapeutics Inc., priority 2022, published 2024)",
  "key": {"[1]": {"system": "neuronal N2A cells", "assay": "Example 21: intracellular ROS and cell survival after t-BHP", "assay_type": "cell-based", "details": "t-BHP 0.5 or 1 mM, 40 min; then 4 hours", "procedure": "Cells will be washed twice and incubated in medium alone or medium containing varying concentrations of peptide conjugates, aromatic-cationic peptides or SPN10(s) with or without aromatic-cationic peptides for 4 hours. Intracellular ROS will be measured using carboxy-H2DCFDA (Molecular Probes, Portland, OR, U.S.A.). Cell death will be measured using an MTS cell proliferation assay (Promega, Madison, WI)."}, "[2]": {"system": "Sprague-Dawley rats", "assay": "Example 40: contrast-induced nephropathy in diabetic animals", "assay_type": "in vivo, rat", "details": "iohexol", "procedure": "Animal model: Impaired renal function caused by diabetes is one of the major predisposing factors for contrast induced nephropathy (McCullough, et al., J. Am. Coll. Cardio., 2008, 51, 1419-1428). In this experiment, a total of 57 Sprague-Dawley rats will be fed a high-fat diet for 6 weeks, followed by the administration of low-dose streptozotocin (30 mg/kg) for a period of 9 weeks. Blood glucose, serum creatinine and Cystatin C will be measured. Animals meeting the following criteria (n=20) will advance to CIN studies: Scr>250 μM, Cystatin C>750 ng/mL and blood glucose>=[…]. […]\nOn day 1, serum samples will be collected and total urine protein will be measured using a Bradford assay. […] Samples will be analyzed by students t-test and differences will be considered significant at p<0.05.\nRenal function: Renal function will be assessed by determining serum and urinary creatinine at baseline, 48 hours and 72 hours following dye administration. The creatinine clearance will be calculated based on the serum and urinary creatinine and urinary volume. Urinary protein concentration will be determined by Bradford Protein Assay kit (Sigma, St. Louis, MO, U.S.A.), and Cystatin C will be measured using a Westang Rat Cystatin C kit (Shanghai, P.R.C.)."}, "[3]": {"system": "Islet cells isolated from mouse pancreas", "assay": "Example 29: viability of isolated pancreatic islet cells", "assay_type": "cell-based", "details": "added to isolation buffers", "text": "Islet cells will be isolated from mouse pancreas according to standard procedures. Peptide conjugates, aromatic-cationic peptides, SPN10(s) with or without aromatic-cationic peptides or control vehicle will be added to isolation buffers used throughout the isolation procedure. Mitochondrial membrane potential will be measured using TMRM (red) and visualized by confocal microscopy, and apoptosis will be measured by flow cytometry using annexin V and necrosis by propidium iodide."}, "[4]": {"system": "normal, mobile mice", "assay": "Skeletal muscle size and mitochondrial function in normal, mobile mice", "assay_type": "in vivo, mouse", "text": "1. Normal, mobile mice: Normal, mobile mice will be randomly divided into […], A-E, with 8 mice per group. Group A mice will receive an injection of saline vehicle; Group B mice will receive an i.p. injection of the peptide conjugate; Group C mice will receive an i.p. injection of aromatic-cationic peptide; Group D mice will receive an i.p. injection of SPN10; Group E mice will receive an i.p. injection of SPN10+aromatic-cationic peptide.\nPreparation of permeabilized muscle fibers. Permeabilized muscle fibers will be prepared as previously described. Korshunov, et al., FEBS Lett 416:15-18, 1997; Tonkonogi, et al., Pfliigers Arch 446:261-269, 2003. Briefly, the muscle will be trimmed of connective tissue and cut down to fiber bundles (4-8 mg wet wt). […]\nMitochondrial respiration in permeabilized fibers. Respiration will be measured polarographically in a respiration chamber maintained at 37° C. […] Flux through complex I will be measured using 5 mM pyruvate and 2 mM malate. […] Basal respiration (state 4) will be determined in the presence of 10 µg/mL oligomycin to inhibit ATP synthesis. The respiratory control ratio (RCR) will be calculated by dividing state 3 by state 4 respiration."}},
  "note": "Residues, ends and D or L forms follow the SMILES beside them.",
  "data": [
    {"smiles": "N=C(N)NCCC[C@H](NC(=O)[C@@H](N)Cc1c[nH]c2ccccc12)C(=O)N[C@@H](Cc1c[nH]c2ccccc12)C(=O)N[C@@H](CCCCN)C(N)=O", "note": "[SPN10, H-L-Trp-L-Arg-L-Trp-L-Lys-NH2] (H-WRWK-NH2)", "values": [
      {"measurement": "cell survival (MTS)", "setting": "[1]", "value": "increase cell survival"},
      {"measurement": "intracellular ROS (carboxy-H2DCFDA)", "setting": "[1]", "value": "dose-dependently reduce intracellular ROS"},
      {"measurement": "elevated serum Cystatin C and reduced creatinine clearance following contrast dye", "setting": "[2]", "value": "attenuate these effects"},
      {"measurement": "apoptosis of islet cells (annexin V)", "setting": "[3]", "value": "reduce apoptosis"},
      {"measurement": "islet cell viability (mitochondrial membrane potential)", "setting": "[3]", "value": "increase islet cell viability"},
      {"measurement": "normal soleus muscle weight, RCR, mitochondrial state 3 and state 4 respiration", "setting": "[4]; mobile mice", "value": "no effect"},
      {"measurement": "normal skeletal muscle size or mitochondrial function", "setting": "[4]; mouse, in vivo", "value": "no effect"}
    ]}
  ]
}
